According to article PMC5218480 (PLoS ONE, 2017):

Tested on: MV-4-11 cells
Test: Gene expression microarray analysis (Affymetrix PrimeView) and GSEA
Type: cell-based, human
Design: RFU PODN (11730768_x_at) / Fold change /veh PODN (11730768_x_at) / RFU LINC00158 (11744669_a_at) / Fold change /veh LINC00158 (11744669_a_at) / RFU DUSP10 (11751237_a_at) / Fold change /veh DUSP10 (11751237_a_at) / RFU ID3 (11757404_x_at) / Fold change /veh ID3 (11757404_x_at) / RFU PLEKHG5 (11737974_s_at) / Fold change /veh PLEKHG5 (11737974_s_at) / RFU LRRC4B (11730491_at) / Fold change /veh LRRC4B (11730491_at) / RFU GIMAP4 (11747438_a_at) / Fold change /veh GIMAP4 (11747438_a_at) / RFU KRT8 (11758183_x_at) / Fold change /veh KRT8 (11758183_x_at) / RFU CNN1 (11734310_a_at) / Fold change /veh CNN1 (11734310_a_at) / RFU VPS37D (11726825_at) / Fold change /veh VPS37D (11726825_at) / RFU C10orf10 (11716522_x_at) / Fold change /veh C10orf10 (11716522_x_at) / RFU KIR2DL2 /// KIR2DL4 /// KIR2DL5A /// KIR2DL5B /// KIR2DS1 /// KIR2DS2 /// KIR2DS3 /// KIR2DS4 /// KIR3DL3 /// KIR3DL3 /// KIR3DS1 (11738374_at) / Fold change /veh KIR2DL2 /// KIR2DL4 /// KIR2DL5A /// KIR2DL5B /// KIR2DS1 /// KIR2DS2 /// KIR2DS3 /// KIR2DS4 /// KIR3DL3 /// KIR3DL3 /// KIR3DS1 (11738374_at) / RFU C1QL1 (11718748_at) / Fold change /veh C1QL1 (11718748_at) / RFU TMPRSS4 (11747572_a_at) / Fold change /veh TMPRSS4 (11747572_a_at) / RFU HAMP (11756126_x_at) / Fold change /veh HAMP (11756126_x_at) / RFU RNFT2 (11725882_a_at) / Fold change /veh RNFT2 (11725882_a_at) / RFU NR4A2 (11747474_a_at) / Fold change /veh NR4A2 (11747474_a_at) / RFU ABCC12 (11746883_a_at) / Fold change /veh ABCC12 (11746883_a_at) / RFU TMEM136 (11760407_x_at) / Fold change /veh TMEM136 (11760407_x_at) / RFU CLDN22 /// WWC2 (11732394_at) / Fold change /veh CLDN22 /// WWC2 (11732394_at) / RFU HLA-DPB1 (11760878_x_at) / Fold change /veh HLA-DPB1 (11760878_x_at) / RFU SPINT1 (11716480_a_at) / Fold change /veh SPINT1 (11716480_a_at) / RFU GAP43 (11754022_s_at) / Fold change /veh GAP43 (11754022_s_at) / RFU A4GNT (11735810_at) / Fold change /veh A4GNT (11735810_at) / RFU PRB3 (11715151_x_at) / Fold change /veh PRB3 (11715151_x_at) / RFU TUBB4B (11761932_at) / Fold change /veh TUBB4B (11761932_at) / RFU CAPN14 (11732068_a_at) / Fold change /veh CAPN14 (11732068_a_at) / RFU TMCC2 (11721928_a_at) / Fold change /veh TMCC2 (11721928_a_at) / RFU IRGQ (11745062_a_at) / Fold change /veh IRGQ (11745062_a_at) / RFU FAM174B (11720279_a_at) / Fold change /veh FAM174B (11720279_a_at) / RFU TMPRSS4 (11748680_a_at) / Fold change /veh TMPRSS4 (11748680_a_at) / RFU FAM212B (11763350_a_at) / Fold change /veh FAM212B (11763350_a_at) / RFU PLEKHG5 (11743358_a_at) / Fold change /veh PLEKHG5 (11743358_a_at) / RFU ZSCAN30 (11745921_a_at) / Fold change /veh ZSCAN30 (11745921_a_at) / RFU CMKLR1 (11741424_a_at) / Fold change /veh CMKLR1 (11741424_a_at) / RFU LOC101060620 /// MAPK8IP1 (11723275_at) / Fold change /veh LOC101060620 /// MAPK8IP1 (11723275_at) / RFU SPTSSB (11747773_x_at) / Fold change /veh SPTSSB (11747773_x_at) / RFU PRSS12 (11739890_at) / Fold change /veh PRSS12 (11739890_at) / RFU BIN1 (11741810_x_at) / Fold change /veh BIN1 (11741810_x_at) / RFU WNT11 (11732464_a_at) / Fold change /veh WNT11 (11732464_a_at) / RFU C10orf10 (11716521_a_at) / Fold change /veh C10orf10 (11716521_a_at) / RFU C5orf56 (11738089_at) / Fold change /veh C5orf56 (11738089_at) / RFU CYB561 (11721691_x_at) / Fold change /veh CYB561 (11721691_x_at) / RFU ANKRD19P (11752326_a_at) / Fold change /veh ANKRD19P (11752326_a_at) / RFU OR2T12 /// OR2T33 /// OR2T8 (11738714_s_at) / Fold change /veh OR2T12 /// OR2T33 /// OR2T8 (11738714_s_at) / RFU VCAN (11748164_a_at) / Fold change /veh VCAN (11748164_a_at) / RFU JSRP1 (11732532_at) / Fold change /veh JSRP1 (11732532_at) / RFU KRTAP10-11 (11738290_x_at) / Fold change /veh KRTAP10-11 (11738290_x_at) / RFU MYO3A (11730013_a_at) / Fold change /veh MYO3A (11730013_a_at) / RFU EBF3 (11725865_a_at) / Fold change /veh EBF3 (11725865_a_at) / RFU CAMK2N1 (11719241_x_at) / Fold change /veh CAMK2N1 (11719241_x_at) / RFU C5orf56 (11738088_a_at) / Fold change /veh C5orf56 (11738088_a_at) / RFU OLFML3 (11715873_a_at) / Fold change /veh OLFML3 (11715873_a_at) / RFU LOC100653217 /// NTM (11731650_a_at) / Fold change /veh LOC100653217 /// NTM (11731650_a_at) / RFU MAPK11 (11762145_a_at) / Fold change /veh MAPK11 (11762145_a_at) / RFU FIZ1 (11724087_x_at) / Fold change /veh FIZ1 (11724087_x_at) / RFU OASL (11726364_x_at) / Fold change /veh OASL (11726364_x_at) / RFU SOX15 (11748057_x_at) / Fold change /veh SOX15 (11748057_x_at) / RFU CD79A (11719716_a_at) / Fold change /veh CD79A (11719716_a_at) / RFU HIST1H1D (11736915_at) / Fold change /veh HIST1H1D (11736915_at) / RFU CASKIN2 (11723855_a_at) / Fold change /veh CASKIN2 (11723855_a_at) / RFU LOC730098 (11760151_x_at) / Fold change /veh LOC730098 (11760151_x_at) / RFU OR4N2 (11742367_at) / Fold change /veh OR4N2 (11742367_at) / RFU PRRT2 (11749266_a_at) / Fold change /veh PRRT2 (11749266_a_at) / RFU SNX32 (11753110_a_at) / Fold change /veh SNX32 (11753110_a_at) / RFU CDHR5 (11726645_a_at) / Fold change /veh CDHR5 (11726645_a_at) / RFU RCAN1 (11760418_a_at) / Fold change /veh RCAN1 (11760418_a_at) / RFU FAM167A (11723789_a_at) / Fold change /veh FAM167A (11723789_a_at) / RFU FAM26E (11764081_at) / Fold change /veh FAM26E (11764081_at) / RFU ISYNA1 (11749810_s_at) / Fold change /veh ISYNA1 (11749810_s_at) / RFU ACY1 (11761880_at) / Fold change /veh ACY1 (11761880_at) / RFU 11764098_at / Fold change /veh 11764098_at / RFU SAMD14 (11745864_x_at) / Fold change /veh SAMD14 (11745864_x_at) / RFU NPB (11741838_a_at) / Fold change /veh NPB (11741838_a_at) / RFU TMPRSS6 (11731388_a_at) / Fold change /veh TMPRSS6 (11731388_a_at) / RFU KRTAP10-2 (11738614_at) / Fold change /veh KRTAP10-2 (11738614_at) / RFU ARHGAP8 /// PRR5-ARHGAP8 (11727945_x_at) / Fold change /veh ARHGAP8 /// PRR5-ARHGAP8 (11727945_x_at) / RFU KRTAP5-7 /// NADSYN1 (11734609_at) / Fold change /veh KRTAP5-7 /// NADSYN1 (11734609_at) / RFU RASL12 (11751679_a_at) / Fold change /veh RASL12 (11751679_a_at) / RFU CDKN2B (11736163_a_at) / Fold change /veh CDKN2B (11736163_a_at) / RFU PRF1 (11729649_at) / Fold change /veh PRF1 (11729649_at) / RFU, ZNF638 /// ZNF638-IT1 / Fold change vs veh, ZNF638 /// ZNF638-IT1 / RFU, PANK3 / Fold change vs veh, PANK3 / RFU, SH3YL1 / Fold change vs veh, SH3YL1 / RFU, ZEB2 / Fold change vs veh, ZEB2 / RFU, NRIP1 / Fold change vs veh, NRIP1 / RFU, PTTG1IP / Fold change vs veh, PTTG1IP / RFU, CAPN2 / Fold change vs veh, CAPN2 / RFU, MED14 / Fold change vs veh, MED14 / RFU, SNORA58 / Fold change vs veh, SNORA58 / RFU, C1orf63 / Fold change vs veh, C1orf63 / RFU, LRRFIP1 / Fold change vs veh, LRRFIP1 / RFU, NDUFAF7 / Fold change vs veh, NDUFAF7 / RFU, SLC12A2 / Fold change vs veh, SLC12A2 / RFU, IBTK / Fold change vs veh, IBTK / RFU, ESF1 / Fold change vs veh, ESF1 / Fold change vs veh, TMEM50B / RFU, TAOK1 / Fold change vs veh, TAOK1 / RFU, ACBD3 / Fold change vs veh, ACBD3 / RFU, TMA16 / Fold change vs veh, TMA16 / RFU, RWDD3 / Fold change vs veh, RWDD3 / RFU, BCAT1 / Fold change vs veh, BCAT1 / RFU, EDEM3 / Fold change vs veh, EDEM3 / RFU, TMEM33 / Fold change vs veh, TMEM33 / RFU, WDR75 / Fold change vs veh, WDR75 / RFU, AHCTF1 / Fold change vs veh, AHCTF1 / RFU, TFRC / Fold change vs veh, TFRC / RFU, ZDHHC17 / Fold change vs veh, ZDHHC17 / RFU, NOM1 / Fold change vs veh, NOM1 / RFU, ARL8B / Fold change vs veh, ARL8B / RFU, ZBTB11 / Fold change vs veh, ZBTB11 / RFU, TAMM41 / Fold change vs veh, TAMM41 / RFU, KIAA1704 /// LOC100996395 / Fold change vs veh, KIAA1704 /// LOC100996395 / RFU, ING1 / Fold change vs veh, ING1 / RFU, TRMT61B / Fold change vs veh, TRMT61B / RFU, FUBP3 / Fold change vs veh, FUBP3 / RFU, TP53 / Fold change vs veh, TP53 / RFU, TNKS2 / Fold change vs veh, TNKS2 / RFU, ZFP14 / Fold change vs veh, ZFP14 / RFU, ACTR2 / Fold change vs veh, ACTR2 / RFU, PPP3R1 / Fold change vs veh, PPP3R1 / RFU, PIK3R1 / Fold change vs veh, PIK3R1 / RFU, HNRNPA1 / Fold change vs veh, HNRNPA1 / RFU, RNF170 / Fold change vs veh, RNF170 / RFU, ZNF28 / Fold change vs veh, ZNF28 / RFU, RNGTT / Fold change vs veh, RNGTT / RFU, OGT / Fold change vs veh, OGT / RFU, BRD1 / Fold change vs veh, BRD1 / RFU, MARS / Fold change vs veh, MARS / RFU, ZNF655 / Fold change vs veh, ZNF655 / RFU, FAHD1 / Fold change vs veh, FAHD1 / RFU, BDP1 / Fold change vs veh, BDP1 / RFU, LRRCC1 / Fold change vs veh, LRRCC1 / RFU, ARID1A / Fold change vs veh, ARID1A / RFU, ZNF146 / Fold change vs veh, ZNF146 / RFU, ZNF330 / Fold change vs veh, ZNF330 / RFU, GPN3 / Fold change vs veh, GPN3 / RFU, C9orf123 / Fold change vs veh, C9orf123 / RFU, N4BP2L2 / Fold change vs veh, N4BP2L2 / RFU, ARFIP1 / Fold change vs veh, ARFIP1 / RFU, FAM179B / Fold change vs veh, FAM179B / RFU, BCL10 / Fold change vs veh, BCL10 / RFU, UHRF1BP1L / Fold change vs veh, UHRF1BP1L / RFU, BET1 / Fold change vs veh, BET1 / RFU, CNOT2 / Fold change vs veh, CNOT2 / RFU, ZNF268 / Fold change vs veh, ZNF268 / Fold change vs veh, ZNF507 / RFU, DGCR2 / Fold change vs veh, DGCR2 / RFU, WDSUB1 / Fold change vs veh, WDSUB1 / Fold change vs veh, HSP90B1 /// MIR3652 / RFU, ADSS / Fold change vs veh, ADSS / RFU, GK / Fold change vs veh, GK / RFU, ZNF148 / Fold change vs veh, ZNF148 / RFU, TAF9 / Fold change vs veh, TAF9 / RFU, SLC1A5 / Fold change vs veh, SLC1A5 / RFU, SLMO2 / Fold change vs veh, SLMO2 / RFU, ABCC4 / Fold change vs veh, ABCC4 / RFU, LOC101060439 /// RAP1B / Fold change vs veh, LOC101060439 /// RAP1B / RFU, RFX7 / Fold change vs veh, RFX7 / RFU, GTPBP10 / Fold change vs veh, GTPBP10 / RFU, CNEP1R1 / Fold change vs veh, CNEP1R1 / RFU, BIVM-ERCC5 /// ERCC5 / Fold change vs veh, BIVM-ERCC5 /// ERCC5 / RFU, ILF3 / Fold change vs veh, ILF3 / RFU 11762660_at / Fold change /veh 11762660_at / RFU VCAN (11757783_s_at) / Fold change /veh VCAN (11757783_s_at) / RFU DDX43 (11728927_at) / Fold change /veh DDX43 (11728927_at) / RFU KRT8 (11758188_x_at) / Fold change /veh KRT8 (11758188_x_at) / RFU NKD1 (11759106_at) / Fold change /veh NKD1 (11759106_at) / RFU SRD5A1 (11742802_a_at) / Fold change /veh SRD5A1 (11742802_a_at) / RFU TPSAB1 /// TPSB2 (11721975_s_at) / Fold change /veh TPSAB1 /// TPSB2 (11721975_s_at) / RFU GSTM3 (11746129_a_at) / Fold change /veh GSTM3 (11746129_a_at) / RFU IL23R (11737362_x_at) / Fold change /veh IL23R (11737362_x_at) / RFU TMEM51 (11727254_a_at) / Fold change /veh TMEM51 (11727254_a_at) / RFU PIWIL2 (11732686_x_at) / Fold change /veh PIWIL2 (11732686_x_at) / RFU ORM1 (11744905_x_at) / Fold change /veh ORM1 (11744905_x_at) / RFU CCDC152 (11743942_at) / Fold change /veh CCDC152 (11743942_at) / RFU ECM1 (11717891_a_at) / Fold change /veh ECM1 (11717891_a_at) / RFU IL23R (11748794_a_at) / Fold change /veh IL23R (11748794_a_at) / RFU TNFAIP8L3 (11732012_x_at) / Fold change /veh TNFAIP8L3 (11732012_x_at) / RFU MBOAT4 (11741988_at) / Fold change /veh MBOAT4 (11741988_at) / RFU 11764193_at / Fold change /veh 11764193_at / RFU TMEM53 (11763286_at) / Fold change /veh TMEM53 (11763286_at) / RFU MAGEB2 (11727129_at) / Fold change /veh MAGEB2 (11727129_at) / RFU TMEM200A (11744735_a_at) / Fold change /veh TMEM200A (11744735_a_at) / RFU CCDC152 (11751479_a_at) / Fold change /veh CCDC152 (11751479_a_at) / RFU FAM211A (11726209_a_at) / Fold change /veh FAM211A (11726209_a_at) / RFU RGS16 (11746705_a_at) / Fold change /veh RGS16 (11746705_a_at) / RFU VCAN (11755009_s_at) / Fold change /veh VCAN (11755009_s_at) / RFU RHOB (11743442_s_at) / Fold change /veh RHOB (11743442_s_at) / RFU RGS16 (11720943_a_at) / Fold change /veh RGS16 (11720943_a_at) / RFU RGS16 (11720944_at) / Fold change /veh RGS16 (11720944_at) / RFU, VPS4B / Fold change vs veh, VPS4B / RFU, CREB1 / Fold change vs veh, CREB1 / RFU, DNAJC13 / Fold change vs veh, DNAJC13 / RFU, GNAQ / Fold change vs veh, GNAQ / RFU, CDK5R1 / Fold change vs veh, CDK5R1 / RFU, ZRANB3 / Fold change vs veh, ZRANB3 / RFU, CUL4A / Fold change vs veh, CUL4A / RFU, CCNY / Fold change vs veh, CCNY / RFU, UFL1 / Fold change vs veh, UFL1 / RFU, COG3 / Fold change vs veh, COG3 / RFU, DIAPH2 / Fold change vs veh, DIAPH2 / RFU, SKA2 / Fold change vs veh, SKA2 / RFU, AFF3 / Fold change vs veh, AFF3 / RFU, LMF1 / Fold change vs veh, LMF1 / RFU, IPO11 / Fold change vs veh, IPO11 / RFU, DFFB / Fold change vs veh, DFFB / RFU, FOXP1 / Fold change vs veh, FOXP1 / RFU, CARD8 / Fold change vs veh, CARD8 / RFU, STRN3 / Fold change vs veh, STRN3 / RFU, ADK / Fold change vs veh, ADK / RFU, RASSF2 / Fold change vs veh, RASSF2 / RFU, WIPF1 / Fold change vs veh, WIPF1 / RFU, LARP1B / Fold change vs veh, LARP1B / RFU, RASA1 / Fold change vs veh, RASA1 / RFU, RB1 / Fold change vs veh, RB1 / RFU, PPFIA1 / Fold change vs veh, PPFIA1 / RFU, MAT2A / Fold change vs veh, MAT2A / RFU, CCT5 / Fold change vs veh, CCT5 / RFU, WDR92 / Fold change vs veh, WDR92 / RFU, CUX1 / Fold change vs veh, CUX1 / RFU, TTC7A / Fold change vs veh, TTC7A / RFU, TMEM135 / Fold change vs veh, TMEM135 / RFU, DEPTOR / Fold change vs veh, DEPTOR / RFU, CPM / Fold change vs veh, CPM / RFU, DNAJB6 / Fold change vs veh, DNAJB6 / RFU, CACNA2D3 / Fold change vs veh, CACNA2D3 / RFU, DTX4 / Fold change vs veh, DTX4 / RFU, TFCP2 / Fold change vs veh, TFCP2 / RFU, GMCL1 /// GMCL1P1 / Fold change vs veh, GMCL1 /// GMCL1P1 / RFU, AEBP2 / Fold change vs veh, AEBP2 / RFU, SNHG1 /// SNORD22 /// SNORD25 /// SNORD26 /// SNORD27 /// SNORD28 /// SNORD29 /// SNORD31 / Fold change vs veh, SNHG1 /// SNORD22 /// SNORD25 /// SNORD26 /// SNORD27 /// SNORD28 /// SNORD29 /// SNORD31 / Fold change (Aza/veh), C12orf56 (ProbeSet 11735607_a_at) / Fold change (ACY-1035/veh), C12orf56 (ProbeSet 11735607_a_at) / Fold change (Aza/veh), FGFR1OP (ProbeSet 11751329_s_at) / Fold change (ACY-1035/veh), FGFR1OP (ProbeSet 11751329_s_at) / Fold change (Aza/veh), VPS36 (ProbeSet 11739960_a_at) / Fold change (ACY-1035/veh), VPS36 (ProbeSet 11739960_a_at) / RFU SYPL1 (11715823_x_at) / Fold change /veh SYPL1 (11715823_x_at) / RFU IGFBP7 (11715501_s_at) / Fold change /veh IGFBP7 (11715501_s_at) / RFU REEP3 (11722064_at) / Fold change /veh REEP3 (11722064_at) / RFU IGLL1 (11728026_x_at) / Fold change /veh IGLL1 (11728026_x_at): dose or concentration left out as unconfirmed
Conditions: ProbeSet 11758440_s_at; LIST B

Nc1ccc(-c2cccs2)cc1NC(=O)c1ccc2c(c1)cc(C1CC1)n2CCN1CCOCC1 [ACY-1035]
RFU, RFX7: 47.76 RFU
